ChEMBL document CHEMBL3046126, “Synthesis and Herbicidal Activity of New Oxazolidinedione Derivatives” (J Pestic Sci, 1999)

Experiments:
Amaranthus viridis = experiment: Pre-emergence herbicidal activity against Amaranthus viridis assessed as phytotoxic weed control visual ratings at 500 g ai/ha measured after 14 days post treatment under upland field conditions; type: functional
Oryza sativa [1] = experiment: Pre-emergence phytotoxicity against Oryza sativa cv. Koshihikari (rice) assessed as phytotoxic crop injury visual ratings measured after 14 days post treatment; type: organism-based; conditions: in vivo, 336 h
[2] = Selectivity index, ratio of ED10 for Oryza sativa to ED90 for Echinochloa oryzicola by pre-emergence exposure method
Echinochloa crus-galli = experiment: Pre-emergence herbicidal activity against Echinochloa crus-galli (barnyard grass) assessed as phytotoxic weed control visual ratings at 500 g ai/ha measured after 14 days post treatment under upland field conditions; type: functional
Cyperus difformis [3] = experiment: Pre-emergence herbicidal activity against Cyperus difformis assessed as phytotoxic weed control visual ratings at 25 g ai/ha measured after 14 days post treatment under flooded conditions; type: functional
Digitaria ciliaris = experiment: Pre-emergence herbicidal activity against Digitaria ciliaris assessed as phytotoxic weed control visual ratings at 500 g ai/ha measured after 14 days post treatment under upland field conditions; type: functional
Echinochloa oryzicola [4] = experiment: Post-emergence herbicidal activity against Echinochloa oryzicola assessed as phytotoxic weed control visual ratings measured after 14 days post treatment; type: functional
Rotala indica [5] = experiment: Pre-emergence herbicidal activity against Rotala indica assessed as phytotoxic weed control visual ratings at 25 g ai/ha measured after 14 days post treatment under flooded conditions; type: functional
Oryza sativa [6] = experiment: Pre-emergence phytotoxicity against Oryza sativa cv. Koshihikari (rice) assessed as phytotoxic crop injury visual ratings at 25 g ai/ha measured after 14 days post treatment under flooded conditions; type: organism-based; conditions: in vivo, other, 336 h
[7] = tested on: Schoenoplectiella juncoides; experiment: Pre-emergence herbicidal activity against Schoenoplectiella juncoides assessed as phytotoxic weed control visual ratings at 25 g ai/ha measured after 14 days post treatment under flooded conditions; type: functional
Echinochloa oryzicola [8] = experiment: Pre-emergence herbicidal activity against Echinochloa oryzicola assessed as phytotoxic weed control visual ratings measured after 14 days post treatment; type: functional
Lindernia procumbens [9] = experiment: Pre-emergence herbicidal activity against Lindernia procumbens assessed as phytotoxic weed control visual ratings at 25 g ai/ha measured after 14 days post treatment under flooded conditions; type: functional
Elatine triandra [10] = experiment: Pre-emergence herbicidal activity against Elatine triandra assessed as phytotoxic weed control visual ratings at 25 g ai/ha measured after 14 days post treatment under flooded conditions; type: functional
Zea mays = experiment: Pre-emergence phytotoxicity against Zea mays (maize) assessed as phytotoxic crop injury visual ratings at 500 g ai/ha measured after 14 days post treatment under upland field conditions; type: organism-based; conditions: in vivo, other, 336 h
Pontederia vaginalis [11] = experiment: Pre-emergence herbicidal activity against Monochoria vaginalis assessed as phytotoxic weed control visual ratings at 25 g ai/ha measured after 14 days post treatment under flooded conditions; type: functional
Echinochloa oryzicola [12] = experiment: Pre-emergence herbicidal activity against Echinochloa oryzicola assessed as phytotoxic weed control visual ratings at 25 g ai/ha measured after 14 days post treatment under flooded conditions; type: functional
Oryza sativa [13] = experiment: Post-emergence phytotoxicity against Oryza sativa cv. Koshihikari (rice) assessed as phytotoxic crop injury visual ratings measured after 14 days post treatment; type: organism-based; conditions: in vivo, 336 h
[14] = Selectivity index, ratio of ED10 for Oryza sativa to ED90 for Echinochloa oryzicola by post-emergence exposure method
Chenopodium album = experiment: Pre-emergence herbicidal activity against Chenopodium album assessed as phytotoxic weed control visual ratings at 500 g ai/ha measured after 14 days post treatment under upland field conditions; type: functional
[15] = tested on: Schoenoplectiella juncoides; experiment: Pre-emergence herbicidal activity against Schoenoplectiella juncoides assessed as phytotoxic weed control visual ratings at 1.25 kg ai/ha measured after 14 days post treatment under flooded conditions; type: functional
Lindernia procumbens [16] = experiment: Pre-emergence herbicidal activity against Lindernia procumbens assessed as phytotoxic weed control visual ratings at 1.25 kg ai/ha measured after 14 days post treatment under flooded conditions; type: functional
Pontederia vaginalis [17] = experiment: Pre-emergence herbicidal activity against Monochoria vaginalis assessed as phytotoxic weed control visual ratings at 1.25 kg ai/ha measured after 14 days post treatment under flooded conditions; type: functional
Elatine triandra [18] = experiment: Pre-emergence herbicidal activity against Elatine triandra assessed as phytotoxic weed control visual ratings at 1.25 kg ai/ha measured after 14 days post treatment under flooded conditions; type: functional
Cyperus difformis [19] = experiment: Pre-emergence herbicidal activity against Cyperus difformis assessed as phytotoxic weed control visual ratings at 1.25 kg ai/ha measured after 14 days post treatment under flooded conditions; type: functional
Oryza sativa [20] = experiment: Pre-emergence phytotoxicity against Oryza sativa cv. Koshihikari (rice) assessed as phytotoxic crop injury visual ratings at 1.25 kg ai/ha measured after 14 days post treatment under flooded conditions; type: organism-based; conditions: in vivo, other, 336 h
Echinochloa oryzicola [21] = experiment: Pre-emergence herbicidal activity against Echinochloa oryzicola assessed as phytotoxic weed control visual ratings at 1.25 kg ai/ha measured after 14 days post treatment under flooded conditions; type: functional
Rotala indica [22] = experiment: Pre-emergence herbicidal activity against Rotala indica assessed as phytotoxic weed control visual ratings at 1.25 kg ai/ha measured after 14 days post treatment under flooded conditions; type: functional

Structure (SMILES) | ED10 (Oryza sativa [1]) [gAi/ha] | Selectivity Index [2] | Phytotoxicity (Oryza sativa [6]) [%] | Phytotoxicity (Zea mays) [%] | ED10 (Oryza sativa [13]) [gAi/ha] | Selectivity Index [14] | Phytotoxicity [15] [%] | Phytotoxicity (Lindernia procumbens [16]) [%] | Phytotoxicity (Pontederia vaginalis [17]) [%] | Phytotoxicity (Elatine triandra [18]) [%] | Phytotoxicity (Cyperus difformis [19]) [%] | Phytotoxicity (Oryza sativa [20]) [%] | Phytotoxicity (Echinochloa oryzicola [21]) [%] | Phytotoxicity (Rotala indica [22]) [%] | further results
CC(C)Oc1cc(-n2nc(C(C)(C)C)oc2=O)c(Cl)cc1Cl [OXADIAZON] | 200 | 8 | 0 | 40 | 400 | 8 | – | – | – | – | – | – | – | – | Phytotoxicity (Amaranthus viridis): 100%; Phytotoxicity (Echinochloa crus-galli): 100%; Phytotoxicity (Cyperus difformis [3]): 100%; Phytotoxicity (Digitaria ciliaris): 100%; ED90 (Echinochloa oryzicola [4]): 50 gAi/ha; Phytotoxicity (Rotala indica [5]): 100%; Phytotoxicity [7]: 100%; ED90 (Echinochloa oryzicola [8]): 25 gAi/ha; Phytotoxicity (Lindernia procumbens [9]): 100%; Phytotoxicity (Elatine triandra [10]): 100%; Phytotoxicity (Pontederia vaginalis [11]): 100%; Phytotoxicity (Echinochloa oryzicola [12]): 90%; Phytotoxicity (Chenopodium album): 100%
O=C1OC(=C2CCCCC2)C(=O)N1c1ccc(Cl)cc1 | – | – | – | – | – | – | 80 | 100 | 10 | 100 | 100 | 0 | 10 | 100 | –
C#CC(C)Oc1cc(N2C(=O)OC(=C(C)C)C2=O)c(F)cc1Cl (stereo unspecified) | 6.25 | 4 | 20 | 10 | 12.5 | 2 | – | – | – | – | – | – | – | – | –
CC(C)=C1OC(=O)N(c2cc(OC3CCCC3)c(Cl)cc2F)C1=O [PENTOXAZONE] | 200 | 16 | 0 | 10 | 400 | 16 | – | – | – | – | – | – | – | – | Phytotoxicity (Amaranthus viridis): 100%; Phytotoxicity (Echinochloa crus-galli): 60%; Phytotoxicity (Cyperus difformis [3]): 100%; Phytotoxicity (Digitaria ciliaris): 90%; ED90 (Echinochloa oryzicola [4]): 25 gAi/ha; Phytotoxicity (Rotala indica [5]): 100%; Phytotoxicity [7]: 100%; ED90 (Echinochloa oryzicola [8]): 12.5 gAi/ha; Phytotoxicity (Lindernia procumbens [9]): 100%; Phytotoxicity (Elatine triandra [10]): 100%; Phytotoxicity (Pontederia vaginalis [11]): 100%; Phytotoxicity (Echinochloa oryzicola [12]): 100%; Phytotoxicity (Chenopodium album): 50%
CC/C(C)=C1/OC(=O)N(c2ccc(Cl)cc2)C1=O | – | – | – | – | – | – | 100 | 100 | 100 | 100 | 100 | 20 | 100 | 100 | –
CCCC/C(C)=C1/OC(=O)N(c2ccc(Cl)cc2)C1=O | – | – | – | – | – | – | 100 | 100 | 100 | 100 | 100 | 10 | 40 | 100 | –
CCC(CC)=C1OC(=O)N(c2ccc(Cl)cc2)C1=O | – | – | – | – | – | – | 30 | 100 | 90 | 100 | 100 | 0 | 10 | 100 | –
